Read-outs that look alike come from different tables or passages of the source.
Legend:
[1] = tested on: costimulatory molecules of LPS-stimulated human dendritic cells; assay: Costimulatory molecules on LPS-stimulated human monocyte-derived dendritic cells (flow cytometry); format: cell-based; settings: Dendritic cell, 24 h, LPS 0.1 μg/ml, D-amino acid 10 μM, mean ± SD of three experiments, relative to LPS-induced expression
Description: Generation of human monocyte-derived dendritic cells. Peripheral venous blood was obtained from healthy volunteers aged between 20 and 50 years after informed consent. Individuals with allergic disease, acute infection or taking any medication 20 days prior to blood sampling or any history of smoking (personal interview) were excluded prior to blood sampling. All experiments were conducted according to the principles expressed in the Declaration of Helsinki.
(§1) Peripheral blood mononuclear cells (PBMC) were isolated from heparinized whole blood by density gradient centrifugation (2000 rpm, 22° C., 20 min) (Biocoll, Biochrom AG, Berlin, Germany). […] Purity and viability of DCs was assessed by flow cytometry (FIG. 9A-C).
Costimulatory molecules on human DCs. The following primary monoclonal antibodies were used: CD83 fluorescein isothiocyanate (FITC); CD1a phycoerythrin (PE); CD86-FITC; CD80-PE; CD14 allophycocyanine (APC); CD40-APC; CD3-peridinin chlorophyll protein (PerCP); HLA-DR-PerCP; mouse immunoglobulins G1 (IgG1) mouse immunoglobulins G1 (IgG1) κ were used as isotype controls using the corresponding fluorochromes (all purchased from BD Biosciences, Heidelberg, Germany). To account for donor dependent variability of DC surface markers, all data were normalized to the expression induced by LPS which was set to 100% after subtraction of background values (FACS Canto, FACS DIVA software, Version 5.0.3, BD Biosciences, Heidelberg, Germany). Murine DC subsets and CD4^+ T cells. Single cell suspensions of splenocytes were obtained by filtering spleens through a 70 μm strainer. Samples were stained with CD3-PB (1:200, Biolegend, San Diego, USA), CD4-APC-H7 (BD, 1:400), CD11c-APC-Cy7 (1:100), Mhc-II-Percp-Cy5 (1:100), CD11b-FITC (1:100), CD80-AF647, CD40-APC (1:100). For intracellular cytokines, total spleen cells were stimulated with anti-CD3 (4 μg/mL, BD Bioscience, Heidelberg, Germany) and anti-CD28 (30 ng/mL, BD Bioscience, Heidelberg, Germany) for 16 h. 1×10^6 of total lung cells were stimulated for 16 h with MACSiBead particles coated with anti-CD3 and anti-CD28 using the T cell activation/expansion kit (Miltenyi Biotec, Bergisch Gladbach, Germany) in TexMACS medium (Miltenyi Biotec) according to the manufactures recommendations. Prior to staining, cells were treated with monensin (0.7 μL/mL, BD Golgi Stop, BD Bioscience, Heidelberg, Germany) for 6 h at 37° C. and intracellularly stained for II-4-PE (1:100, eBioscience, Vienna, Austria according to the manufacturer's protocols. Intracellular staining for Foxp3 was performed by using the Foxp3/Transcription Factor Staining buffer set (eBiosciences, Vienna, Austria) according to the manufacturer's recommendations.
Bioassays for screening for immune modulatory activity in probiotic supernatants. Two biological assays based on down-modulation of costimulatory molecules on human DCs, and of CCL17-secretion by a human Hodgkin lymphoma T cell line (KM-H2) were set up. Human immature DCs were matured with 0.1 μg/mL lipopolysaccharide (LPS) from E. coli (Sigma-Aldrich, St. Louis, USA) in the presence or absence of 200 μL bacteria free supernatants for 24 h followed by flow cytometric analysis of costimulatory molecules.

[2] = tested on: human LPS treated DCs; assay: Cytokine secretion of human DCs (multiplex assay); format: cell-based; settings: for IFN-g / IL-5 / IL-10 / IL-12: 200 μl supernatant or amino acid 10 μM, 14 h
Description: as §1
[…] For probiotic supernatants, blank CDM1 was used as medium control. […] IL-5, IFN-gamma, IL-12, and IL-10, were quantified by a multiplex assay (Milliplex Human Cytokine Immunoassay, Millipore GMbH Schalbach, Germany) as described by the manufacturer.

[3] = read-out: Percentage of CD40 expressing mature DCs
[4] = read-out: Percentage of CD80 expressing mature DCs
[5] = read-out: Percentage of CD83 expressing mature DCs
[6] = read-out: Percentage of CD86 expressing mature DCs
[7] = read-out: Percentage of HLA-DR expressing mature DCs

Row | SMILES | activity at 10 µM [1, 3] | activity at 10 µM [1, 4] | activity at 10 µM [1, 5] | activity at 10 µM [1, 6] | activity at 10 µM [1, 7] | Ratio IL-5/IFN-g ([2]; with LPS 0.1 μg/ml) | Ratio IL-10/IL-12 ([2]; with LPS 0.1 μg/ml) | IFN-g ([2]; with LPS 0.1 μg/ml) | IL-5 ([2]; with LPS 0.1 μg/ml) | IL-10 ([2]; with LPS 0.1 μg/ml) | IL-12 ([2]; with LPS 0.1 μg/ml) | Ratio IL-5/IFN-g ([2]; without LPS) | IFN-g ([2]; without LPS) | IL-5 ([2]; without LPS) | IL-12 ([2]; without LPS) | Ratio IL-10/IL-12 ([2]; without LPS) | IL-10 ([2]; without LPS)
1 | N[C@H](Cc1ccccc1)C(=O)O [D-phenylalanine] | 100 ± 2.7% | 92.4 ± 3.5% | 99.6 ± 2% | 99.2 ± 3.3% | 98 ± 3.2% |  |  |  |  |  |  |  |  |  |  |  | 
2 | N[C@H](CO)C(=O)O [D-serine] | 101 ± 1.1% | 100 ± 2.8% | 100.8 ± 0.3% | 101 ± 2.8% | 98.6 ± 0.6% |  |  |  |  |  |  |  |  |  |  |  | 
3 | CSCC[C@@H](N)C(=O)O [D-methionine] | 102.7 ± 0.6% | 100.4 ± 0.2% | 102 ± 2.2% | 102 ± 2.5% | 98.9 ± 2% |  |  |  |  |  |  |  |  |  |  |  | 
4 | O=C(O)[C@@H]1CCCN1 [L-Pro, L-Prolin] |  |  |  |  |  | 0.027 | 0.003 | 2133.90 pg/mL | 57.70 pg/mL | 6.00 pg/mL | 1938.00 pg/mL | 0.166 | 88.90 pg/mL | 14.80 pg/mL | 99.80 pg/mL |  | 
5 | O=C(O)[C@H]1CCCN1 [D-proline] | 99.2 ± 1.3% | 100.3 ± 0.1% | 100.9 ± 0.4% | 101 ± 1.9% | 98.4 ± 2.6% | 0.030 | 0.002 | 2295.40 pg/mL | 69.10 pg/mL | 4.00 pg/mL | 1911.90 pg/mL | 0.171 | 92.60 pg/mL | 15.80 pg/mL | 90.60 pg/mL | 0.065 | 5.90 pg/mL
6 | CC[C@@H](C)[C@@H](N)C(=O)O [D-isoleucine] | 100 ± 2.4% | 98.2 ± 1.5% | 100 ± 1.1% | 99.8 ± 1.2% | 100.1 ± 0.3% |  |  |  |  |  |  |  |  |  |  |  | 
7 | N[C@H](Cc1ccc(O)cc1)C(=O)O [D-tyrosin] | 100 ± 1.3% | 101.6 ± 0.4% | 101.6 ± 0.6% | 102.2 ± 0.9% | 98.4 ± 2.4% |  |  |  |  |  |  |  |  |  |  |  | 

From patent US10857128B2, “Methods and compositions for treating inflammatory diseases” (Helmholtz Zentrum München Deutsches Forschungszentrum für …, priority 2017, dated 2020)
